Data as given in patent US4735953A, “Pharmaceutical preparation for learning stimulation and memory improvement” (priority 1986, dated 1988).

Legend:
[1] = tested on: learning ability of rats in a shuttle chamber; assay: Active avoidance learning in a shuttle chamber, rats; type: in vivo, rat
Source text: In these experiments rats are taught to avoid an electric shock by escaping into a next chamber communicating with the first chamber by means of a special opening--a door. An electric current is applied to the chamber door consisting of metal plates. A conditional irritator is a light signal together with a sound click. The learning series consisted of 50 combinations. The number of combinations necessary for the animal's learning to escape into another chamber in response to the conditional signal was determined. Five correct responses out of 6 where regarded as the proof of stability of the acquired knowledge and were denoted as a "learning criterion". After 7 days the educational procedure was repeated, and again the number of combinations necessary to acquire the "learning criterion" was determined. In the case of difference between the first and second readings the percentage of retention of the acquired knowledge was calculated.
In this experiment the effect of the preparation according to the present invention and prior art preparations was separately evaluated for the purpose of comparison on well-learning and on specially selected poorly learning rats. […] To the poorly learning rats the animals were assigned which reached no "learning criterion" in the teaching series of 50 combinations, or, in other words, a stable knowledge of active avoidance was not worked out in them. […] The preparation according to the present invention and the prior art comparison preparations were administered before the first teaching series or thereafter.
Also studied were the effects produced upon a single and repeated administration of the preparation according to the present invention for 14 days.

[2] = tested on: cerebral cortex of rabbits; assay: Asymmetry factor by induced potential in the hearing zone of the cerebral cortex; type: in vivo, rabbit
How it was run: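 Rabbits under nembutal (40 mg/kg) got symmetric electrodes in left and right temporal auditory cortex; clicks at 0.1-0.2 Hz, 5-80 dB via earphones evoked potentials. Preparations given subcutaneously as 0.5-1.5% aqueous solutions 20 min before recording; amplitudes measured and asymmetry factor computed from both hemispheres.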

[3] = tested on: learning ability of mice in a shuttle chamber; assay: Learning ability of mice in a shuttle chamber; type: in vivo, mouse
Solubility = type: physicochemical
[4] = rats, hypodermally 1 mg/kg 14 days
[5] = rats, hypodermally 5 mg/kg 14 days
[6] = rats, hypodermally 5 mg/kg after teaching
[7] = mice, hypodermally 1 mg/kg, 1st day
[8] = mice, hypodermally 1 mg/kg, 12 day (retention)
[9] = mice, hypodermally 3 mg/kg, 1st day
[10] = mice, hypodermally 3 mg/kg, 12 day (retention)
[11] = mice, hypodermally 10 mg/kg, 1st day
[12] = mice, hypodermally 10 mg/kg, 12 day (retention)
[13] = mice, per os 0.3 mg/kg, 1st day
[14] = mice, per os 0.3 mg/kg, 12 day (retention)
[15] = mice, per os 1 mg/kg, 12 day (retention)
[16] = mice, per os 3 mg/kg, 12 day (retention)

Compound: Cl.Nc1c2c(nc3c1CCC3)CCCC2.O [preparation of the invention, 9-amino-2,3,5,6,7,8-hexahydro-1H-cyclopenta(b)quinoline monohydrate hydrochloride]
- learning capacity (in words) ([1]; rats, 1, 5 and 10 mg/kg): stimulate the learning capacity of rats
- activity on learning versus comparison preparations (in words) ([1]; rats, Tables 1 and 2): substantially more active than 4-aminopyridine, physostigmine, pyracetam and lysyl-vasopressin
- Number of combinations to reach the "learning criterion" in II teaching series (after 7 days) ([1]; rats, hypodermally 1 mg/kg): 4.2 + 0.8
- Number of combinations to reach the "learning criterion" in the I teaching series ([1]; rats, hypodermally 1 mg/kg): 14.2 + 1.2
- Number of non-taught animals in the group ([1]; rats, hypodermally 1 mg/kg): 3/20
- Percentage knowledge retention ([1]; rats, hypodermally 1 mg/kg): 70.4%
- Number of combinations to reach the "learning criterion" in II teaching series (after 7 days) [1, 4]: 3.9 ± 0.8
- Number of combinations to reach the "learning criterion" in the I teaching series [1, 4]: 14.7 ± 1.9
- Number of non-taught animals in the group [1, 4]: 2/20
- Percentage knowledge retention [1, 4]: 72.7%
- Number of combinations to reach the "learning criterion" in II teaching series (after 7 days) ([1]; rats, hypodermally 5 mg/kg): 2.6 + 0.3
- Number of combinations to reach the "learning criterion" in the I teaching series ([1]; rats, hypodermally 5 mg/kg): 11.5 + 0.9
- Number of non-taught animals in the group ([1]; rats, hypodermally 5 mg/kg): 1/20
- Percentage knowledge retention ([1]; rats, hypodermally 5 mg/kg): 77.4%
- Number of combinations to reach the "learning criterion" in II teaching series (after 7 days) [1, 5]: 4.4 ± 0.5
- Number of combinations to reach the "learning criterion" in the I teaching series [1, 5]: 14.8 ± 2.0
- Number of non-taught animals in the group [1, 5]: 2/20
- Percentage knowledge retention [1, 5]: 69.3%
- Number of combinations to reach the "learning criterion" in II teaching series (after 7 days) [1, 6]: 7.2 ± 0.8
- Number of combinations to reach the "learning criterion" in the I teaching series [1, 6]: 19.0 ± 1.2
- Number of non-taught animals in the group [1, 6]: 1/20
- Percentage knowledge retention [1, 6]: 60%
- Number of combinations to reach the "learning criterion" in II teaching series (after 7 days) ([1]; rats, hypodermally 10 mg/kg): 3.0 + 0.5
- Number of combinations to reach the "learning criterion" in the I teaching series ([1]; rats, hypodermally 10 mg/kg): 12.9 + 0.8
- Number of non-taught animals in the group ([1]; rats, hypodermally 10 mg/kg): 0/15
- Percentage knowledge retention ([1]; rats, hypodermally 10 mg/kg): 76.7%
- Number of combinations to reach the "learning criterion" in II teaching series (after 7 days) ([1]; rats, per os 5 mg/kg): 6.0 + 0.5
- Number of combinations to reach the "learning criterion" in the I teaching series ([1]; rats, per os 5 mg/kg): 12.8 + 1.7
- Number of non-taught animals in the group ([1]; rats, per os 5 mg/kg): 2/20
- Percentage knowledge retention ([1]; rats, per os 5 mg/kg): 60%
- stimulating effect as compared to single-time administration (in words) ([1]; rats, two-weeks of administration): stimulating effect is also enhanced
- asymmetry factor (in words) [2]: the asymmetry factor is also increased
- efficiency versus comparison preparations (in words) ([3]; mice): more efficient than pyracetam, 4-aminopyridine, physostigmine and calcium homopantothenate
- retention of the acquired knowledge (in words) ([3]; mice, 1, 3 and 10 mg/kg, after 24 hours): improves retention of the acquired knowledge
- learning process (in words) ([3]; mice, 1, 3 and 10 mg/kg, first day of teaching): facilitates the learning process
- % of avoidance reactions, group I [3, 7]: 22%
- % of avoidance reactions, group II [3, 7]: 40%
- % of avoidance reactions, group III [3, 7]: 52%
- % of avoidance reactions, group IV [3, 7]: 60%
- % of avoidance reactions, group V [3, 7]: 70%
- % of avoidance reactions, group VI [3, 7]: 74%
- % of avoidance reactions, group I [3, 8]: 70%
- % of avoidance reactions, group II [3, 8]: 88%
- % of avoidance reactions, group III [3, 8]: 90%
- % of avoidance reactions, group IV [3, 8]: 90%
- % of avoidance reactions, group V [3, 8]: 91%
- % of avoidance reactions, group VI [3, 8]: 90%
- % of avoidance reactions, group I [3, 9]: 32%
- % of avoidance reactions, group II [3, 9]: 43%
- % of avoidance reactions, group III [3, 9]: 50%
- % of avoidance reactions, group IV [3, 9]: 61%
- % of avoidance reactions, group V [3, 9]: 67%
- % of avoidance reactions, group VI [3, 9]: 65%
- % of avoidance reactions, group I [3, 10]: 66%
- % of avoidance reactions, group II [3, 10]: 90%
- % of avoidance reactions, group III [3, 10]: 88%
- % of avoidance reactions, group IV [3, 10]: 87%
- % of avoidance reactions, group V [3, 10]: 86%
- % of avoidance reactions, group VI [3, 10]: 86%
- % of avoidance reactions, group I [3, 11]: 28%
- % of avoidance reactions, group II [3, 11]: 20%
- % of avoidance reactions, group III [3, 11]: 25%
- % of avoidance reactions, group IV [3, 11]: 40%
- % of avoidance reactions, group V [3, 11]: 44%
- % of avoidance reactions, group VI [3, 11]: 46%
- % of avoidance reactions, group I [3, 12]: 61%
- % of avoidance reactions, group II [3, 12]: 75%
- % of avoidance reactions, group III [3, 12]: 78%
- % of avoidance reactions, group IV [3, 12]: 77%
- % of avoidance reactions, group V [3, 12]: 76%
- % of avoidance reactions, group VI [3, 12]: 81%
- % of avoidance reactions, group I [3, 13]: 27%
- % of avoidance reactions, group II [3, 13]: 38%
- % of avoidance reactions, group III [3, 13]: 59%
- % of avoidance reactions, group IV [3, 13]: 65%
- % of avoidance reactions, group V [3, 13]: 68%
- % of avoidance reactions, group VI [3, 13]: 72%
- % of avoidance reactions, group I [3, 14]: 79%
- % of avoidance reactions, group II [3, 14]: 84%
- % of avoidance reactions, group III [3, 14]: 82%
- % of avoidance reactions, group IV [3, 14]: 83%
- % of avoidance reactions, group V [3, 14]: 80%
- % of avoidance reactions, group VI [3, 14]: 82%
- % of avoidance reactions, group I ([3]; mice, per os 1 mg/kg, 1st day): 27%
- % of avoidance reactions, group II ([3]; mice, per os 1 mg/kg, 1st day): 43%
- % of avoidance reactions, group III ([3]; mice, per os 1 mg/kg, 1st day): 70%
- % of avoidance reactions, group IV ([3]; mice, per os 1 mg/kg, 1st day): 80%
- % of avoidance reactions, group V ([3]; mice, per os 1 mg/kg, 1st day): 80%
- % of avoidance reactions, group VI ([3]; mice, per os 1 mg/kg, 1st day): 82%
- % of avoidance reactions, group I [3, 15]: 80%
- % of avoidance reactions, group II [3, 15]: 90%
- % of avoidance reactions, group III [3, 15]: 88%
- % of avoidance reactions, group IV [3, 15]: 87%
- % of avoidance reactions, group V [3, 15]: 86%
- % of avoidance reactions, group VI [3, 15]: 90%
- % of avoidance reactions, group I ([3]; mice, per os 3 mg/kg, 1st day): 18%
- % of avoidance reactions, group II ([3]; mice, per os 3 mg/kg, 1st day): 27%
- % of avoidance reactions, group III ([3]; mice, per os 3 mg/kg, 1st day): 35%
- % of avoidance reactions, group IV ([3]; mice, per os 3 mg/kg, 1st day): 44%
- % of avoidance reactions, group V ([3]; mice, per os 3 mg/kg, 1st day): 51%
- % of avoidance reactions, group VI ([3]; mice, per os 3 mg/kg, 1st day): 50%
- % of avoidance reactions, group I [3, 16]: 51%
- % of avoidance reactions, group II [3, 16]: 76%
- % of avoidance reactions, group III [3, 16]: 75%
- % of avoidance reactions, group IV [3, 16]: 77%
- % of avoidance reactions, group V [3, 16]: 79%
- % of avoidance reactions, group VI [3, 16]: 80%
- memory stimulation, per os as compared to subcutaneous administration ([3]; mice, per os vs subcutaneous): the same or even better results of memory stimulation
- solubility in 95% ethanol (Solubility; 95% ethanol): less soluble in a 95% ethanol
- solubility in acetone (Solubility; acetone): substantially insoluble
- solubility in chloroform (Solubility; chloroform): substantially insoluble
- solubility in diluted solutions of acids (Solubility; diluted solutions of acids): readily soluble in diluted solutions of acids
- solubility in ether (Solubility; ether): substantially insoluble
- solubility in water (Solubility; water): well soluble in water
